{"source": "paper PMC5218480", "about": "(PLoS ONE, 2017)", "test_system": "MV-4-11 cells", "assay": "Gene expression microarray analysis (Affymetrix PrimeView) and GSEA", "assay_type": "cell-based, human", "parameters": "RFU PODN (11730768_x_at) / Fold change /veh PODN (11730768_x_at) / RFU LINC00158 (11744669_a_at) / Fold change /veh LINC00158 (11744669_a_at) / RFU DUSP10 (11751237_a_at) / Fold change /veh DUSP10 (11751237_a_at) / RFU ID3 (11757404_x_at) / Fold change /veh ID3 (11757404_x_at) / RFU PLEKHG5 (11737974_s_at) / Fold change /veh PLEKHG5 (11737974_s_at) / RFU LRRC4B (11730491_at) / Fold change /veh LRRC4B (11730491_at) / RFU GIMAP4 (11747438_a_at) / Fold change /veh GIMAP4 (11747438_a_at) / RFU KRT8 (11758183_x_at) / Fold change /veh KRT8 (11758183_x_at) / RFU CNN1 (11734310_a_at) / Fold change /veh CNN1 (11734310_a_at) / RFU VPS37D (11726825_at) / Fold change /veh VPS37D (11726825_at) / RFU C10orf10 (11716522_x_at) / Fold change /veh C10orf10 (11716522_x_at) / RFU KIR2DL2 /// KIR2DL4 /// KIR2DL5A /// KIR2DL5B /// KIR2DS1 /// KIR2DS2 /// KIR2DS3 /// KIR2DS4 /// KIR3DL3 /// KIR3DL3 /// KIR3DS1 (11738374_at) / Fold change /veh KIR2DL2 /// KIR2DL4 /// KIR2DL5A /// KIR2DL5B /// KIR2DS1 /// KIR2DS2 /// KIR2DS3 /// KIR2DS4 /// KIR3DL3 /// KIR3DL3 /// KIR3DS1 (11738374_at) / RFU C1QL1 (11718748_at) / Fold change /veh C1QL1 (11718748_at) / RFU TMPRSS4 (11747572_a_at) / Fold change /veh TMPRSS4 (11747572_a_at) / RFU HAMP (11756126_x_at) / Fold change /veh HAMP (11756126_x_at) / RFU RNFT2 (11725882_a_at) / Fold change /veh RNFT2 (11725882_a_at) / RFU NR4A2 (11747474_a_at) / Fold change /veh NR4A2 (11747474_a_at) / RFU ABCC12 (11746883_a_at) / Fold change /veh ABCC12 (11746883_a_at) / RFU TMEM136 (11760407_x_at) / Fold change /veh TMEM136 (11760407_x_at) / RFU CLDN22 /// WWC2 (11732394_at) / Fold change /veh CLDN22 /// WWC2 (11732394_at) / RFU HLA-DPB1 (11760878_x_at) / Fold change /veh HLA-DPB1 (11760878_x_at) / RFU SPINT1 (11716480_a_at) / Fold change /veh SPINT1 (11716480_a_at) / RFU GAP43 (11754022_s_at) / Fold change /veh GAP43 (11754022_s_at) / RFU A4GNT (11735810_at) / Fold change /veh A4GNT (11735810_at) / RFU PRB3 (11715151_x_at) / Fold change /veh PRB3 (11715151_x_at) / RFU TUBB4B (11761932_at) / Fold change /veh TUBB4B (11761932_at) / RFU CAPN14 (11732068_a_at) / Fold change /veh CAPN14 (11732068_a_at) / RFU TMCC2 (11721928_a_at) / Fold change /veh TMCC2 (11721928_a_at) / RFU IRGQ (11745062_a_at) / Fold change /veh IRGQ (11745062_a_at) / RFU FAM174B (11720279_a_at) / Fold change /veh FAM174B (11720279_a_at) / RFU TMPRSS4 (11748680_a_at) / Fold change /veh TMPRSS4 (11748680_a_at) / RFU FAM212B (11763350_a_at) / Fold change /veh FAM212B (11763350_a_at) / RFU PLEKHG5 (11743358_a_at) / Fold change /veh PLEKHG5 (11743358_a_at) / RFU ZSCAN30 (11745921_a_at) / Fold change /veh ZSCAN30 (11745921_a_at) / RFU CMKLR1 (11741424_a_at) / Fold change /veh CMKLR1 (11741424_a_at) / RFU LOC101060620 /// MAPK8IP1 (11723275_at) / Fold change /veh LOC101060620 /// MAPK8IP1 (11723275_at) / RFU SPTSSB (11747773_x_at) / Fold change /veh SPTSSB (11747773_x_at) / RFU PRSS12 (11739890_at) / Fold change /veh PRSS12 (11739890_at) / RFU BIN1 (11741810_x_at) / Fold change /veh BIN1 (11741810_x_at) / RFU WNT11 (11732464_a_at) / Fold change /veh WNT11 (11732464_a_at) / RFU C10orf10 (11716521_a_at) / Fold change /veh C10orf10 (11716521_a_at) / RFU C5orf56 (11738089_at) / Fold change /veh C5orf56 (11738089_at) / RFU CYB561 (11721691_x_at) / Fold change /veh CYB561 (11721691_x_at) / RFU ANKRD19P (11752326_a_at) / Fold change /veh ANKRD19P (11752326_a_at) / RFU OR2T12 /// OR2T33 /// OR2T8 (11738714_s_at) / Fold change /veh OR2T12 /// OR2T33 /// OR2T8 (11738714_s_at) / RFU VCAN (11748164_a_at) / Fold change /veh VCAN (11748164_a_at) / RFU JSRP1 (11732532_at) / Fold change /veh JSRP1 (11732532_at) / RFU KRTAP10-11 (11738290_x_at) / Fold change /veh KRTAP10-11 (11738290_x_at) / RFU MYO3A (11730013_a_at) / Fold change /veh MYO3A (11730013_a_at) / RFU EBF3 (11725865_a_at) / Fold change /veh EBF3 (11725865_a_at) / RFU CAMK2N1 (11719241_x_at) / Fold change /veh CAMK2N1 (11719241_x_at) / RFU C5orf56 (11738088_a_at) / Fold change /veh C5orf56 (11738088_a_at) / RFU OLFML3 (11715873_a_at) / Fold change /veh OLFML3 (11715873_a_at) / RFU LOC100653217 /// NTM (11731650_a_at) / Fold change /veh LOC100653217 /// NTM (11731650_a_at) / RFU MAPK11 (11762145_a_at) / Fold change /veh MAPK11 (11762145_a_at) / RFU FIZ1 (11724087_x_at) / Fold change /veh FIZ1 (11724087_x_at) / RFU OASL (11726364_x_at) / Fold change /veh OASL (11726364_x_at) / RFU SOX15 (11748057_x_at) / Fold change /veh SOX15 (11748057_x_at) / RFU CD79A (11719716_a_at) / Fold change /veh CD79A (11719716_a_at) / RFU HIST1H1D (11736915_at) / Fold change /veh HIST1H1D (11736915_at) / RFU CASKIN2 (11723855_a_at) / Fold change /veh CASKIN2 (11723855_a_at) / RFU LOC730098 (11760151_x_at) / Fold change /veh LOC730098 (11760151_x_at) / RFU OR4N2 (11742367_at) / Fold change /veh OR4N2 (11742367_at) / RFU PRRT2 (11749266_a_at) / Fold change /veh PRRT2 (11749266_a_at) / RFU SNX32 (11753110_a_at) / Fold change /veh SNX32 (11753110_a_at) / RFU CDHR5 (11726645_a_at) / Fold change /veh CDHR5 (11726645_a_at) / RFU RCAN1 (11760418_a_at) / Fold change /veh RCAN1 (11760418_a_at) / RFU FAM167A (11723789_a_at) / Fold change /veh FAM167A (11723789_a_at) / RFU FAM26E (11764081_at) / Fold change /veh FAM26E (11764081_at) / RFU ISYNA1 (11749810_s_at) / Fold change /veh ISYNA1 (11749810_s_at) / RFU ACY1 (11761880_at) / Fold change /veh ACY1 (11761880_at) / RFU 11764098_at / Fold change /veh 11764098_at / RFU SAMD14 (11745864_x_at) / Fold change /veh SAMD14 (11745864_x_at) / RFU NPB (11741838_a_at) / Fold change /veh NPB (11741838_a_at) / RFU TMPRSS6 (11731388_a_at) / Fold change /veh TMPRSS6 (11731388_a_at) / RFU KRTAP10-2 (11738614_at) / Fold change /veh KRTAP10-2 (11738614_at) / RFU ARHGAP8 /// PRR5-ARHGAP8 (11727945_x_at) / Fold change /veh ARHGAP8 /// PRR5-ARHGAP8 (11727945_x_at) / RFU KRTAP5-7 /// NADSYN1 (11734609_at) / Fold change /veh KRTAP5-7 /// NADSYN1 (11734609_at) / RFU RASL12 (11751679_a_at) / Fold change /veh RASL12 (11751679_a_at) / RFU CDKN2B (11736163_a_at) / Fold change /veh CDKN2B (11736163_a_at) / RFU PRF1 (11729649_at) / Fold change /veh PRF1 (11729649_at) / RFU, ZNF638 /// ZNF638-IT1 / Fold change vs veh, ZNF638 /// ZNF638-IT1 / RFU, PANK3 / Fold change vs veh, PANK3 / RFU, SH3YL1 / Fold change vs veh, SH3YL1 / RFU, ZEB2 / Fold change vs veh, ZEB2 / RFU, NRIP1 / Fold change vs veh, NRIP1 / RFU, PTTG1IP / Fold change vs veh, PTTG1IP / RFU, CAPN2 / Fold change vs veh, CAPN2 / RFU, MED14 / Fold change vs veh, MED14 / RFU, SNORA58 / Fold change vs veh, SNORA58 / RFU, C1orf63 / Fold change vs veh, C1orf63 / RFU, LRRFIP1 / Fold change vs veh, LRRFIP1 / RFU, NDUFAF7 / Fold change vs veh, NDUFAF7 / RFU, SLC12A2 / Fold change vs veh, SLC12A2 / RFU, IBTK / Fold change vs veh, IBTK / RFU, ESF1 / Fold change vs veh, ESF1 / Fold change vs veh, TMEM50B / RFU, TAOK1 / Fold change vs veh, TAOK1 / RFU, ACBD3 / Fold change vs veh, ACBD3 / RFU, TMA16 / Fold change vs veh, TMA16 / RFU, RWDD3 / Fold change vs veh, RWDD3 / RFU, BCAT1 / Fold change vs veh, BCAT1 / RFU, EDEM3 / Fold change vs veh, EDEM3 / RFU, TMEM33 / Fold change vs veh, TMEM33 / RFU, WDR75 / Fold change vs veh, WDR75 / RFU, AHCTF1 / Fold change vs veh, AHCTF1 / RFU, TFRC / Fold change vs veh, TFRC / RFU, ZDHHC17 / Fold change vs veh, ZDHHC17 / RFU, NOM1 / Fold change vs veh, NOM1 / RFU, ARL8B / Fold change vs veh, ARL8B / RFU, ZBTB11 / Fold change vs veh, ZBTB11 / RFU, TAMM41 / Fold change vs veh, TAMM41 / RFU, KIAA1704 /// LOC100996395 / Fold change vs veh, KIAA1704 /// LOC100996395 / RFU, ING1 / Fold change vs veh, ING1 / RFU, TRMT61B / Fold change vs veh, TRMT61B / RFU, FUBP3 / Fold change vs veh, FUBP3 / RFU, TP53 / Fold change vs veh, TP53 / RFU, TNKS2 / Fold change vs veh, TNKS2 / RFU, ZFP14 / Fold change vs veh, ZFP14 / RFU, ACTR2 / Fold change vs veh, ACTR2 / RFU, PPP3R1 / Fold change vs veh, PPP3R1 / RFU, PIK3R1 / Fold change vs veh, PIK3R1 / RFU, HNRNPA1 / Fold change vs veh, HNRNPA1 / RFU, RNF170 / Fold change vs veh, RNF170 / RFU, ZNF28 / Fold change vs veh, ZNF28 / RFU, RNGTT / Fold change vs veh, RNGTT / RFU, OGT / Fold change vs veh, OGT / RFU, BRD1 / Fold change vs veh, BRD1 / RFU, MARS / Fold change vs veh, MARS / RFU, ZNF655 / Fold change vs veh, ZNF655 / RFU, FAHD1 / Fold change vs veh, FAHD1 / RFU, BDP1 / Fold change vs veh, BDP1 / RFU, LRRCC1 / Fold change vs veh, LRRCC1 / RFU, ARID1A / Fold change vs veh, ARID1A / RFU, ZNF146 / Fold change vs veh, ZNF146 / RFU, ZNF330 / Fold change vs veh, ZNF330 / RFU, GPN3 / Fold change vs veh, GPN3 / RFU, C9orf123 / Fold change vs veh, C9orf123 / RFU, N4BP2L2 / Fold change vs veh, N4BP2L2 / RFU, ARFIP1 / Fold change vs veh, ARFIP1 / RFU, FAM179B / Fold change vs veh, FAM179B / RFU, BCL10 / Fold change vs veh, BCL10 / RFU, UHRF1BP1L / Fold change vs veh, UHRF1BP1L / RFU, BET1 / Fold change vs veh, BET1 / RFU, CNOT2 / Fold change vs veh, CNOT2 / RFU, ZNF268 / Fold change vs veh, ZNF268 / Fold change vs veh, ZNF507 / RFU, DGCR2 / Fold change vs veh, DGCR2 / RFU, WDSUB1 / Fold change vs veh, WDSUB1 / Fold change vs veh, HSP90B1 /// MIR3652 / RFU, ADSS / Fold change vs veh, ADSS / RFU, GK / Fold change vs veh, GK / RFU, ZNF148 / Fold change vs veh, ZNF148 / RFU, TAF9 / Fold change vs veh, TAF9 / RFU, SLC1A5 / Fold change vs veh, SLC1A5 / RFU, SLMO2 / Fold change vs veh, SLMO2 / RFU, ABCC4 / Fold change vs veh, ABCC4 / RFU, LOC101060439 /// RAP1B / Fold change vs veh, LOC101060439 /// RAP1B / RFU, RFX7 / Fold change vs veh, RFX7 / RFU, GTPBP10 / Fold change vs veh, GTPBP10 / RFU, CNEP1R1 / Fold change vs veh, CNEP1R1 / RFU, BIVM-ERCC5 /// ERCC5 / Fold change vs veh, BIVM-ERCC5 /// ERCC5 / RFU, ILF3 / Fold change vs veh, ILF3 / RFU 11762660_at / Fold change /veh 11762660_at / RFU VCAN (11757783_s_at) / Fold change /veh VCAN (11757783_s_at) / RFU DDX43 (11728927_at) / Fold change /veh DDX43 (11728927_at) / RFU KRT8 (11758188_x_at) / Fold change /veh KRT8 (11758188_x_at) / RFU NKD1 (11759106_at) / Fold change /veh NKD1 (11759106_at) / RFU SRD5A1 (11742802_a_at) / Fold change /veh SRD5A1 (11742802_a_at) / RFU TPSAB1 /// TPSB2 (11721975_s_at) / Fold change /veh TPSAB1 /// TPSB2 (11721975_s_at) / RFU GSTM3 (11746129_a_at) / Fold change /veh GSTM3 (11746129_a_at) / RFU IL23R (11737362_x_at) / Fold change /veh IL23R (11737362_x_at) / RFU TMEM51 (11727254_a_at) / Fold change /veh TMEM51 (11727254_a_at) / RFU PIWIL2 (11732686_x_at) / Fold change /veh PIWIL2 (11732686_x_at) / RFU ORM1 (11744905_x_at) / Fold change /veh ORM1 (11744905_x_at) / RFU CCDC152 (11743942_at) / Fold change /veh CCDC152 (11743942_at) / RFU ECM1 (11717891_a_at) / Fold change /veh ECM1 (11717891_a_at) / RFU IL23R (11748794_a_at) / Fold change /veh IL23R (11748794_a_at) / RFU TNFAIP8L3 (11732012_x_at) / Fold change /veh TNFAIP8L3 (11732012_x_at) / RFU MBOAT4 (11741988_at) / Fold change /veh MBOAT4 (11741988_at) / RFU 11764193_at / Fold change /veh 11764193_at / RFU TMEM53 (11763286_at) / Fold change /veh TMEM53 (11763286_at) / RFU MAGEB2 (11727129_at) / Fold change /veh MAGEB2 (11727129_at) / RFU TMEM200A (11744735_a_at) / Fold change /veh TMEM200A (11744735_a_at) / RFU CCDC152 (11751479_a_at) / Fold change /veh CCDC152 (11751479_a_at) / RFU FAM211A (11726209_a_at) / Fold change /veh FAM211A (11726209_a_at) / RFU RGS16 (11746705_a_at) / Fold change /veh RGS16 (11746705_a_at) / RFU VCAN (11755009_s_at) / Fold change /veh VCAN (11755009_s_at) / RFU RHOB (11743442_s_at) / Fold change /veh RHOB (11743442_s_at) / RFU RGS16 (11720943_a_at) / Fold change /veh RGS16 (11720943_a_at) / RFU RGS16 (11720944_at) / Fold change /veh RGS16 (11720944_at) / RFU, VPS4B / Fold change vs veh, VPS4B / RFU, CREB1 / Fold change vs veh, CREB1 / RFU, DNAJC13 / Fold change vs veh, DNAJC13 / RFU, GNAQ / Fold change vs veh, GNAQ / RFU, CDK5R1 / Fold change vs veh, CDK5R1 / RFU, ZRANB3 / Fold change vs veh, ZRANB3 / RFU, CUL4A / Fold change vs veh, CUL4A / RFU, CCNY / Fold change vs veh, CCNY / RFU, UFL1 / Fold change vs veh, UFL1 / RFU, COG3 / Fold change vs veh, COG3 / RFU, DIAPH2 / Fold change vs veh, DIAPH2 / RFU, SKA2 / Fold change vs veh, SKA2 / RFU, AFF3 / Fold change vs veh, AFF3 / RFU, LMF1 / Fold change vs veh, LMF1 / RFU, IPO11 / Fold change vs veh, IPO11 / RFU, DFFB / Fold change vs veh, DFFB / RFU, FOXP1 / Fold change vs veh, FOXP1 / RFU, CARD8 / Fold change vs veh, CARD8 / RFU, STRN3 / Fold change vs veh, STRN3 / RFU, ADK / Fold change vs veh, ADK / RFU, RASSF2 / Fold change vs veh, RASSF2 / RFU, WIPF1 / Fold change vs veh, WIPF1 / RFU, LARP1B / Fold change vs veh, LARP1B / RFU, RASA1 / Fold change vs veh, RASA1 / RFU, RB1 / Fold change vs veh, RB1 / RFU, PPFIA1 / Fold change vs veh, PPFIA1 / RFU, MAT2A / Fold change vs veh, MAT2A / RFU, CCT5 / Fold change vs veh, CCT5 / RFU, WDR92 / Fold change vs veh, WDR92 / RFU, CUX1 / Fold change vs veh, CUX1 / RFU, TTC7A / Fold change vs veh, TTC7A / RFU, TMEM135 / Fold change vs veh, TMEM135 / RFU, DEPTOR / Fold change vs veh, DEPTOR / RFU, CPM / Fold change vs veh, CPM / RFU, DNAJB6 / Fold change vs veh, DNAJB6 / RFU, CACNA2D3 / Fold change vs veh, CACNA2D3 / RFU, DTX4 / Fold change vs veh, DTX4 / RFU, TFCP2 / Fold change vs veh, TFCP2 / RFU, GMCL1 /// GMCL1P1 / Fold change vs veh, GMCL1 /// GMCL1P1 / RFU, AEBP2 / Fold change vs veh, AEBP2 / RFU, SNHG1 /// SNORD22 /// SNORD25 /// SNORD26 /// SNORD27 /// SNORD28 /// SNORD29 /// SNORD31 / Fold change vs veh, SNHG1 /// SNORD22 /// SNORD25 /// SNORD26 /// SNORD27 /// SNORD28 /// SNORD29 /// SNORD31 / Fold change (Aza/veh), C12orf56 (ProbeSet 11735607_a_at) / Fold change (ACY-1035/veh), C12orf56 (ProbeSet 11735607_a_at) / Fold change (Aza/veh), FGFR1OP (ProbeSet 11751329_s_at) / Fold change (ACY-1035/veh), FGFR1OP (ProbeSet 11751329_s_at) / Fold change (Aza/veh), VPS36 (ProbeSet 11739960_a_at) / Fold change (ACY-1035/veh), VPS36 (ProbeSet 11739960_a_at) / RFU SYPL1 (11715823_x_at) / Fold change /veh SYPL1 (11715823_x_at) / RFU IGFBP7 (11715501_s_at) / Fold change /veh IGFBP7 (11715501_s_at) / RFU REEP3 (11722064_at) / Fold change /veh REEP3 (11722064_at) / RFU IGLL1 (11728026_x_at) / Fold change /veh IGLL1 (11728026_x_at): dose or concentration left out as unconfirmed", "conditions": "MV-4-11 cells, 48 hours", "data": [{"smiles": "Nc1ncn([C@@H]2O[C@H](CO)[C@@H](O)[C@H]2O)c(=O)n1", "note": "[azacitidine]", "values": [{"measurement": "RFU RGS16 (11720943_a_at)", "value": 102.77, "unit": "RFU"}]}]}
